In patent publication US20150175599A1, “FAAH Inhibitors” (Ironwood Pharmaceuticals, Inc., priority 2010, published 2015):

Tests used:
FAAH [1] = target: T1, FAAH (Rattus norvegicus, UniProt P97612); assay: FAAH inhibition, rat brain membrane homogenate assay; assay type: biochemical; conditions: rat brain homogenate; average activity; read-out: Rat Brain Extract FAAH IC50
T1 construct: For the assay of FAAH activity in rat brain membrane (RBM) homogenates; tissue Charles River (animals); host or cells: rat whole brain, membrane fraction
T1 sequence (P97612 1-579): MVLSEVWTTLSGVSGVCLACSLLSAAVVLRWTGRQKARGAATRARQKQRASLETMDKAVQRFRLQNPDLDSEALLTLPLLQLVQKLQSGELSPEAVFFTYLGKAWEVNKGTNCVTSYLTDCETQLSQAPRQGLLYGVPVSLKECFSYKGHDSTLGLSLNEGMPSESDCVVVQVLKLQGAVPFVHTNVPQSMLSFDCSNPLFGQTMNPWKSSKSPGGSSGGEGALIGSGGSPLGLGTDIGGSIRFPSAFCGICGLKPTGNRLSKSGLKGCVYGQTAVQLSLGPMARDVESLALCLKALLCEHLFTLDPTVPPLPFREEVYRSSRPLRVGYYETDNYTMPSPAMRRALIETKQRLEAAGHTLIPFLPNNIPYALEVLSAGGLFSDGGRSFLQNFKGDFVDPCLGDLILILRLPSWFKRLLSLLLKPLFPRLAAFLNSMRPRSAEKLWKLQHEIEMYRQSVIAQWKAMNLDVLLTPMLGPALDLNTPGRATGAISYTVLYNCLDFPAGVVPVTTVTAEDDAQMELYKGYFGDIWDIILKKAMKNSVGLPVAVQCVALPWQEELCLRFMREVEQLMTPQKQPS
In short: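 Membranes from female CD rat brain (Tris pH 7.4/EDTA/MgCl2 resuspension), 7 μg protein, incubated 10 min at 37 °C with [3H]anandamide plus […] unlabelled AEA, 1 mg/mL fatty acid-free BSA, Tris-HCl pH 6.5, 1 mM EDTA, 1% DMSO. [3H]ethanolamine separated by chloroform/methanol extraction or charcoal filtration, scintillation-counted; IC50 derived.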

FAAH [2] = target: T2, FAAH (Homo sapiens, UniProt O00519); assay: FAAH inhibition, human brain membrane homogenate assay; assay type: biochemical; conditions: human brain homogenate; average activity; read-out: Human brain Extract FAAH IC50
T2 construct: Reactions were initiated by adding 12.5 μg of brain microsome; tissue ABS, Inc; host or cells: human brain cerebral cortex, membrane/microsome fraction pooled from 3 donors
T2 sequence (O00519 1-579): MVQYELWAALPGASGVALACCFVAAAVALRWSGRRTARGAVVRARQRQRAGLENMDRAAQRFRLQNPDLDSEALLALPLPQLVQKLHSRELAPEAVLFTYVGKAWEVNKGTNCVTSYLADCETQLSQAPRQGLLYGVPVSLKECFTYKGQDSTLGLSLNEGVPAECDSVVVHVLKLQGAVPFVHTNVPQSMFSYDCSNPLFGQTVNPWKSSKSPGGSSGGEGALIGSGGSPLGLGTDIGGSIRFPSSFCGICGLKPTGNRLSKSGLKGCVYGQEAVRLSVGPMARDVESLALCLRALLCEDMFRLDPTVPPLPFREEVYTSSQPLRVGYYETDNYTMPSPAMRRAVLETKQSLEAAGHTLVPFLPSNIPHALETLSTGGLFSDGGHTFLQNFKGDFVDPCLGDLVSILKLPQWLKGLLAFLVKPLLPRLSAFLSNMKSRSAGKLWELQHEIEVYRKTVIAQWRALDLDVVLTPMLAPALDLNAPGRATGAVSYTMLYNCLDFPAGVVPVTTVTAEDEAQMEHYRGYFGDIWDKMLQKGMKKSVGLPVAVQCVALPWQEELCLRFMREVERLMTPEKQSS

| SMILES | IC50 (FAAH [1]) [µM] | IC50 (FAAH [2]) [µM] |
| --- | --- | --- |
| COc1cc(NC(=O)C(=O)c2c(C)n(Cc3ccc(Cl)cc3)c3cccnc23)ccn1 [Compound 3, 2-(1-(4-chlorobenzyl)-2-methyl-1H-pyrrolo[3,2-b]pyridin-3-yl)-N-(2-methoxypyridin-4-yl)-2-oxoacetamide] | < 0.1 | < 0.1 |
| COc1cc(NC(=O)C(=O)c2c(C)n(Cc3ccc(Cl)cc3)c3ccc(C(=O)O)cc23)ccn1 [Compound 4, 1-(4-chlorobenzyl)-3-(2-(2-methoxypyridin-4-ylamino)-2-oxoacetyl)-2-methyl-1H-indole-5-carboxylic acid] | 1 to 10 | 1 to 10 |
| COc1ccc2c(c1)c(C(=O)C(=O)Nc1ccnc(OC)c1)c(C)n2Cc1cccnc1 [Compound 78, 2-(5-methoxy-2-methyl-1-(pyridin-3-ylmethyl)-1H-indol-3-yl)-N-(2-methoxypyridin-4-yl)-2-oxoacetamide] | 0.1 to 1 | 0.1 to 1 |
| COc1ccc2c(c1)c(C(=O)C(=O)Nc1ccnc(OC)c1)c(C)n2Cc1ccc(Cl)cn1 [Compound 79, 2-(1-((5-chloropyridin-2-yl)methyl)-5-methoxy-2-methyl-1H-indol-3-yl)-N-(2-methoxypyridin-4-yl)-2-oxoacetamide] | < 0.1 | < 0.1 |
| COc1cc(NC(=O)C(=O)c2c(C)n(Cc3ccc(Cl)cc3)c3cc(OC)c(Cl)cc23)ccn1 [Compound 80, 2-(5-chloro-1-(4-chlorobenzyl)-6-methoxy-2-methyl-1H-indol-3-yl)-N-(2-methoxypyridin-4-yl)-2-oxoacetamide] | < 0.1 | < 0.1 |
| COc1ccc2c(c1)c(C(=O)C(=O)Nc1ccnc(OC)c1)c(C)n2Cc1ncc(F)cc1F [Compound 81, 2-(1-((3,5-difluoropyridin-2-yl)methyl)-5-methoxy-2-methyl-1H-indol-3-yl)-N-(2-methoxypyridin-4-yl)-2-oxoacetamide] | < 0.1 | < 0.1 |
| COc1ccc2c(c1)c(C(=O)C(=O)Nc1ccnc(OC)c1)c(C)n2Cc1ncc(Cl)cc1Cl [Compound 82, 2-(1-((3,5-dichloropyridin-2-yl)methyl)-5-methoxy-2-methyl-1H-indol-3-yl)-N-(2-methoxypyridin-4-yl)-2-oxoacetamide] | < 0.1 | < 0.1 |
| COc1ccc2c(c1)c(C(=O)C(=O)Nc1ccnc(OC)c1)c(C)n2Cc1ncccn1 [Compound 83, 2-(5-methoxy-2-methyl-1-(pyrimidin-2-ylmethyl)-1H-indol-3-yl)-N-(2-methoxypyridin-4-yl)-2-oxoacetamide] | 1 to 10 | 1 to 10 |
| COc1ccc2c(c1)c(C(=O)C(=O)Nc1ccnc(OC)c1)c(C)n2Cc1ccc(C)cn1 [Compound 84, 2-(5-methoxy-2-methyl-1-((5-methylpyridin-2-yl)methyl)-1H-indol-3-yl)-N-(2-methoxypyridin-4-yl)-2-oxoacetamide] | < 0.1 | < 0.1 |
| COc1cc(NC(=O)C(=O)c2c(C)n(Cc3ccc(F)cn3)c3ccc(C)cc23)ccn1 [Compound 85, 2-(1-((5-fluoropyridin-2-yl)methyl)-2,5-dimethyl-1H-indol-3-yl)-N-(2-methoxypyridin-4-yl)-2-oxoacetamide] | < 0.1 | < 0.1 |
| COc1ccc2c(c1)c(C(=O)C(=O)Nc1ccnc(OC)c1)c(C)n2Cc1ccc(Cl)nn1 [Compound 86, 2-(1-((6-chloropyridazin-3-yl)methyl)-5-methoxy-2-methyl-1H-indol-3-yl)-N-(2-methoxypyridin-4-yl)-2-oxoacetamide] | < 0.1 | < 0.1 |
| COc1ccc2c(c1)c(C(=O)C(=O)Nc1ccnc(OC)c1)c(C)n2Cc1ncc(Cl)cc1F [Compound 87, 2-(1-((5-chloro-3-fluoropyridin-2-yl)methyl)-5-methoxy-2-methyl-1H-indol-3-yl)-N-(2-methoxypyridin-4-yl)-2-oxoacetamide] | < 0.1 | < 0.1 |
| COc1cc(NC(=O)C(=O)c2c(C)n(Cc3ccc(Cl)cc3)c3cc(F)c(C)cc23)ccn1 [Compound 89, 2-(1-(4-chlorobenzyl)-6-fluoro-2,5-dimethyl-1H-indol-3-yl)-N-(2-methoxypyridin-4-yl)-2-oxoacetamide] | < 0.1 | < 0.1 |
| COc1cc(NC(=O)C(=O)c2c(C)n(Cc3ccc(Cl)cn3)c3cc(F)c(C)cc23)ccn1 [Compound 90, 2-(1-((5-chloropyridin-2-yl)methyl)-6-fluoro-2,5-dimethyl-1H-indol-3-yl)-N-(2-methoxypyridin-4-yl)-2-oxoacetamide] | < 0.1 | < 0.1 |
| COc1cc(NC(=O)C(=O)c2c(C)n(Cc3ccc(Cl)cc3F)c3cc(F)c(OC)cc23)ccn1 [Compound 91, 2-(1-(4-chloro-2-fluorobenzyl)-6-fluoro-5-methoxy-2-methyl-1H-indol-3-yl)-N-(2-methoxypyridin-4-yl)-2-oxoacetamide] | < 0.1 | < 0.1 |
| COc1cc(NC(=O)C(=O)c2c(C)n(Cc3ccc(Cl)cc3Cl)c3cc(F)c(OC)cc23)ccn1 [Compound 92, 2-(1-(2,4-dichlorobenzyl)-6-fluoro-5-methoxy-2-methyl-1H-indol-3-yl)-N-(2-methoxypyridin-4-yl)-2-oxoacetamide] | < 0.1 | < 0.1 |
| COc1cc(NC(=O)C(=O)c2c(C)n(Cc3ccc(Cl)cc3)c3cc(Cl)c(C)cc23)ccn1 [Compound 93, 2-(6-chloro-1-(4-chlorobenzyl)-2,5-dimethyl-1H-indol-3-yl)-N-(2-methoxypyridin-4-yl)-2-oxoacetamide] | < 0.1 | < 0.1 |
| COc1cc(NC(=O)C(=O)c2c(C)n(Cc3ccc(Cl)cn3)c3cc(Cl)c(C)cc23)ccn1 [Compound 94, 2-(6-chloro-1-((5-chloropyridin-2-yl)methyl)-2,5-dimethyl-1H-indol-3-yl)-N-(2-methoxypyridin-4-yl)-2-oxoacetamide] | < 0.1 | < 0.1 |
